“And” between values parts separate entries of the source, which are not always exact repeats. Identical values can stand only once.
Columns and labels:
[1] = system: IPOHE; assay: Example I postemergence foliar-applied, greenhouse, direct seeded rice weeds; assay type: in vivo, Ipomoea hederacea Jacq.
Procedure, shortened: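 Greenhouse plants in loam/sandy loam–grit soil (80:20), grown 8-22 days (29/26 °C, 14 hr photoperiod) to first–fourth true leaf, sprayed postemergence at 187 L/ha with 1.25% (v/v) crop oil concentrate, alone or in mixtures. Visual injury scored 0–100% versus untreated plants after about 3 weeks; mixture expectations by Colby's equation.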

[2] = system: ECHOR; assay: Example II in-water applied, greenhouse, transplanted paddy rice weeds; assay type: in vivo, Echinochloa oryzoides (Ard.) Fritsch
Description: Weed seeds or nutlets of the desired test plant species were planted in puddled soil (mud) prepared by mixing a shredded, non-sterilized mineral soil (50.5 percent silt, 25.5 percent clay, and 24 percent sand, with a pH of about 7.6 and an organic matter content of about 2.9 percent) and water at a 1:1 volumetric ratio. The prepared mud was dispensed in 365 mL aliquots into 16-ounce (oz.) non-perforated plastic pots with a surface area of 86.59 square centimeters (cm^2) leaving a headspace of 3 centimeters (cm) in each pot. Mud was allowed to dry overnight prior to planting or transplanting. Rice seeds were planted in Sun Gro MetroMix® 306 planting mixture, which typically has a pH of 6.0 to 6.8 and an organic matter content of about 30 percent, in plastic plug trays. Seedlings at the second or third leaf stage of growth were transplanted into 860 mL of mud contained in 32-oz. non-perforated plastic pots with a surface area of 86.59 cm^2 4 days prior to herbicide application. The paddy was created by filling the headspace of the pots with 2.5 to 3 cm of water. […] The plants were grown for 4-22 days in a greenhouse with an approximate 14 hr. photoperiod which was maintained at about 29° C. during the day and 26° C. during the night. Nutrients were added as Osmocote® (19:6:12, N:P:K+minor nutrients) at 2 g per 16-oz. pot and 4 g per 32-oz. pot. Water was added on a regular basis to maintain the paddy flood, and supplemental lighting was provided with overhead metal halide 1000-Watt lamps as necessary. The plants were employed for testing when they reached the first through fourth true leaf stage.
Treatments consisted of the acid or esters of 4-amino-3-chloro-5-fluoro-6-(4-chloro-2-fluoro-3-methoxy-phenyl)pyridine-2-carboxylic acid (compound A) each formulated as an SC (suspension concentrate) and various herbicidal components alone and in combination.
For formulated compounds, a measured amount was placed in an individual 100 or 200 mL glass vial and was dissolved in a volume of 1.25% (v/v) Agri-Dex® crop oil concentrate to obtain application solutions.
Applications were made by injecting with a pipetter appropriate amounts of the application solutions, individually and sequentially, into the aqueous layer of the paddy. Control plants were treated in the same manner with the solvent blank. Applications were made so that all treated plant material received the same concentrations of acetone and crop oil concentrate.
The treated plants and control plants were placed in a greenhouse as described above and water was added as needed to maintain a paddy flood. After approximately 3 weeks the condition of the test plants as compared with that of the untreated plants was determined visually and scored on a scale of 0 to 100 percent where 0 corresponds to no injury or growth inhibition and 100 corresponds to complete kill.
Colby's equation was used to determine the herbicidal effects expected from the mixtures (Colby, S. R. 1967. Calculation of the synergistic and antagonistic response of herbicide combinations. Weeds 15:20-22.).
The following equation was used to calculate the expected activity of mixtures containing two active ingredients, A and B: Expected=A+B−(A×B/100)

## COc1c(Cl)ccc(-c2nc(C(=O)O)c(Cl)c(N)c2F)c1F [Compound A Acid, 4-amino-3-chloro-6-(4-chloro-2-fluoro-3-methoxyphenyl)-5-fluoropyridine-2-carboxylic acid]
[1]; 4.38 gae/ha
  Visual Weed Control (%) - 19 DAA IPOHE Obs: 0%
  Visual Weed Control (%) - 20 DAA IPOHE Obs: 10% and 0%
  Visual Weed Control (%) - 24 DAA IPOHE Obs: 10%
[1]; 8.75 gae/ha
  Visual Weed Control (%) - 19 DAA IPOHE Obs: 10%
  Visual Weed Control (%) - 20 DAA IPOHE Obs: 30% and 20%
  Visual Weed Control (%) - 24 DAA IPOHE Obs: 10%
[1]; 17.5 gae/ha
  Visual Weed Control (%) - 19 DAA IPOHE Obs: 35%
  Visual Weed Control (%) - 20 DAA IPOHE Obs: 40%
  Visual Weed Control (%) - 24 DAA IPOHE Obs: 30%
[1]; 19.4 gae/ha
  Visual Weed Control (%) - 20 DAA IPOHE Obs: 15%
[2]; 8.75 gae/ha in-water
  Visual Weed Control (%) - 25 DAA ECHOR Obs: 0%
[2]; 17.5 gae/ha in-water
  Visual Weed Control (%) - 25 DAA ECHOR Obs: 0%
[2]; 35 gae/ha in-water
  Visual Weed Control (%) - 25 DAA ECHOR Obs: 40%
[2]; in-water, 8.75 gae/ha
  Visual Weed Control (%) - 21 DAA ECHOR Obs: 0%
[2]; in-water, 10.6 gae/ha
  Visual Weed Control (%) - 21 DAA ECHOR Obs: 0%
[2]; in-water, 21.2 gae/ha
  Visual Weed Control (%) - 21 DAA ECHOR Obs: 15%
[2]; in-water, 35 gae/ha
  Visual Weed Control (%) - 21 DAA ECHOR Obs: 15% and 30%
[2]; in-water, 42.4 gae/ha
  Visual Weed Control (%) - 21 DAA ECHOR Obs: 15%
[2]; in-water, Compound A Acid 8.75 gae/ha
  Visual Weed Control (%) - 21 DAA ECHOR Obs: 10%
[2]; in-water, Compound A Acid 17.5 gae/ha
  Visual Weed Control (%) - 21 DAA ECHOR Obs: 15%
[2]; in-water, Compound A Acid 35 gae/ha
  Visual Weed Control (%) - 21 DAA ECHOR Obs: 20%

## COc1c(Cl)ccc(-c2nc(C(=O)OCc3ccccc3)c(Cl)c(N)c2F)c1F [Compound A Benzyl Ester, benzyl ester of 4-amino-3-chloro-5-fluoro-6-(4-chloro-2-fluoro-3-methoxy-phenyl)pyridine-2-carboxylic acid]
[1]; 4.38 gae/ha
  Visual Weed Control (%) - 19 DAA IPOHE Obs: 0%
[1]; 8.75 gae/ha
  Visual Weed Control (%) - 19 DAA IPOHE Obs: 0%
[1]; 16 gae/ha
  Visual Weed Control (%) - 21 DAA IPOHE Obs: 10%
[1]; 32 gae/ha
  Visual Weed Control (%) - 21 DAA IPOHE Obs: 25%
  Visual Weed Control (%) - 22 DAA IPOHE Obs: 45%
[2]; in-water, 4.38 gae/ha
  Visual Weed Control (%) - 21 DAA ECHOR Obs: 0%
[2]; in-water, 8 gae/ha
  Visual Weed Control (%) - 21 DAA ECHOR Obs: 10% and 8%
[2]; in-water, 8.75 gae/ha
  Visual Weed Control (%) - 21 DAA ECHOR Obs: 10% and 15%
  Visual Weed Control (%) - 25 DAA ECHOR Obs: 85%
[2]; in-water, 17.5 gae/ha
  Visual Weed Control (%) - 25 DAA ECHOR Obs: 90%
[2]; in-water, 35 gae/ha
  Visual Weed Control (%) - 25 DAA ECHOR Obs: 100%
[2]; in-water, 48 gae/ha
  Visual Weed Control (%) - 21 DAA ECHOR Obs: 78%
[2]; in-water, 96 gae/ha
  Visual Weed Control (%) - 21 DAA ECHOR Obs: 80%

## CCCCOC(=O)[C@@H](C)Oc1ccc(Oc2ccc(C#N)cc2F)cc1 [Cyhalofop-butyl, butyl(2R)-2-[4-(4-cyano-2-fluorophenoxy)phenoxy]propanoate, reference compound]
[1]; 280 gai/ha
  Visual Weed Control (%) - 20 DAA IPOHE Obs: 0%
[2]; 90 gai/ha, in-water
  Visual Weed Control (%) - 25 DAA ECHOR Obs: 0%
[2]; in-water, 90 gai/ha
  Visual Weed Control (%) - 25 DAA ECHOR Obs: 0%

## C[C@@H](Oc1ccc(Oc2nc3ccc(Cl)cc3o2)cc1)C(=O)N(C)c1ccccc1F [Metamifop, (2R)-2-[4-[(6-chloro-2-benzoxazolyl)oxy]phenoxy]-N-(2-fluorophenyl)-N-methylpropanamide]
[1]; 9.38 gai/ha
  Visual Weed Control (%) - 22 DAA IPOHE Obs: 0%
[1]; 18.75 gai/ha
  Visual Weed Control (%) - 22 DAA IPOHE Obs: 0%
[1]; 37.5 gai/ha
  Visual Weed Control (%) - 22 DAA IPOHE Obs: 0%
[1]; 150 gai/ha
  Visual Weed Control (%) - 24 DAA IPOHE Obs: 0%
[2]; in-water, 50 gai/ha
  Visual Weed Control (%) - 21 DAA ECHOR Obs: 20%

## CCC/C(=N\OCC(C)Oc1ccc(Cl)cc1)C1=C(O)CC(C2CCCSC2)CC1=O (centres unmarked) [Profoxydim, 2-[1-[[2-(4-chlorophenoxy)propoxy]imino]butyl]-3-hydroxy-5-(tetrahydro-2H-thiopyran-3-yl)-2-cyclohexen-1-one, reference compound]
[2]; in-water, 25 gai/ha
  Visual Weed Control (%) - 21 DAA ECHOR Obs: 0%

## CCOC(=O)[C@@H](C)Oc1ccc(Oc2cnc3cc(Cl)ccc3n2)cc1 [Quizalofop-p-ethyl, ethyl(2R)-2-[4-[(6-chloro-2-quinoxalinyl)oxy]phenoxy]propanoate, reference compound]
[1]; 1.88 gai/ha
  Visual Weed Control (%) - 22 DAA IPOHE Obs: 0%
[1]; 3.75 gai/ha
  Visual Weed Control (%) - 22 DAA IPOHE Obs: 0%
[1]; 7.5 gai/ha
  Visual Weed Control (%) - 22 DAA IPOHE Obs: 0%
[1]; 15 gai/ha
  Visual Weed Control (%) - 20 DAA IPOHE Obs: 0%
[1]; 30 gai/ha
  Visual Weed Control (%) - 20 DAA IPOHE Obs: 0%
[2]; in-water, 15 gai/ha
  Visual Weed Control (%) - 21 DAA ECHOR Obs: 0%
[2]; in-water, 30 gai/ha
  Visual Weed Control (%) - 21 DAA ECHOR Obs: 60%
